Consider 25 compounds from patent publication US12471596B2 (priority 2019, dated 2025).

For test [1], the system named is Phytophthora infestans. The test can be described thus: whole plant or invertebrate. It counts as in vivo, Phytophthora infestans on tomato plants. The following applies: in Solanum lycopersicum, 24 h, read-out: control compared to the untreated check.
Test [2] concerns Phytophthora infestans. The experiment in a line: microbe, parasite or virus in culture. The following applies: in Secale cereale, 168 h, read-out: control compared to the untreated check. It counts as cell-based.

For `O=C(COc1nccnc1C(F)(F)F)N1CCC(c2nc(C3OCc4c(F)ccc(F)c4CO3)cs2)CC1` [Compound 64, 1-(4-(4-(6,9-difluoro-1,5-dihydrobenzo[e][1,3]dioxepin-3-yl)thiazol-2-yl)piperidin-1-yl)-2-((3-(trifluoromethyl)pyrazin-2-yl)oxy)ethan-1-one], the pest or weed control at 50 ppm with Phytophthora infestans [1] is at least 70%. Moreover, the inhibition of growth at 30 ppm in the test on Phytophthora infestans [2] was at least 70%.

Consider `COc1nccnc1OCC(=O)N1CCC(c2nc(C3=NOC(c4c(F)cccc4Cl)C3)cs2)CC1` (stereo not drawn) [Compound 25, 1-(4-(4-(5-(2-chloro-6-fluorophenyl)-4,5-dihydroisoxazol-3-yl)thiazol-2-yl)piperidin-1-yl)-2-((3-methoxypyrazin-2-yl)oxy)ethan-1-one], for which, in the test with Phytophthora infestans [1], the pest or weed control at 50 ppm was at least 70%. Also, in the test with Phytophthora infestans [2], the inhibition of growth at 30 ppm is at least 70%.

For `COc1ccnc(OCC(=O)N2CCC(c3nc(C4=NOC(c5c(F)cccc5Cl)C4)cs3)CC2)n1` (stereo not drawn) [Compound 34, 1-(4-(4-(5-(2-chloro-6-fluorophenyl)-4,5-dihydroisoxazol-3-yl)thiazol-2-yl)piperidin-1-yl)-2-((4-methoxypyrimidin-2-yl)oxy)ethan-1-one], the pest or weed control at 50 ppm in the test on Phytophthora infestans [1] is at least 70%. The inhibition of growth at 30 ppm with Phytophthora infestans [2] is at least 70%.

`CS(=O)(=O)Oc1cccc(Cl)c1C1CC(c2csc(C3CCN(C(=O)COc4cc(C(F)(F)F)ncn4)CC3)n2)=NO1` (stereo not drawn) [Compound 7, 3-chloro-2-(3-(2-(1-(2-((6-(trifluoromethyl)pyrimidin-4-yl)oxy)acetyl)piperidin-4-yl)thiazol-4-yl)-4,5-dihydroisoxazol-5-yl)phenyl methanesulfonate]: the pest or weed control at 50 ppm in the test with Phytophthora infestans [1] was at least 70%. In the test with Phytophthora infestans [2], the inhibition of growth at 30 ppm is at least 70%.

Take `O=C(COc1ccc(C(F)(F)F)nn1)N1CCC(c2nc(C3=NOC(c4c(Cl)cc(Cl)cc4Cl)C3)cs2)CC1` (stereo not drawn) [Compound 37, 1-(4-(4-(5-(2,4,6-trichlorophenyl)-4,5-dihydroisoxazol-3-yl)thiazol-2-yl)piperidin-1-yl)-2-((6-(trifluoromethyl)pyridazin-3-yl)oxy)ethan-1-one]: the pest or weed control at 50 ppm in the test with Phytophthora infestans [1] is at least 70%. In addition, the inhibition of growth at 30 ppm with Phytophthora infestans [2] was at least 70%.

With `COc1ccnc(OCC(=O)N2CCC(c3nc(C4=NOC(c5c(F)cccc5F)C4)cs3)CC2)n1` (stereo not drawn) [Compound 36, 1-(4-(4-(5-(2,6-difluorophenyl)-4,5-dihydroisoxazol-3-yl)thiazol-2-yl)piperidin-1-yl)-2-((4-methoxypyrimidin-2-yl)oxy)ethan-1-one], the pest or weed control at 50 ppm with Phytophthora infestans [1] is at least 70%. In addition, the inhibition of growth at 30 ppm in the test on Phytophthora infestans [2] is at least 70%.

Turning to `O=C(COc1nccnc1C(F)(F)F)N1CCC(c2nc(C3=NOC(c4c(Cl)cccc4C(F)(F)F)C3)cs2)CC1` (stereo not drawn) [Compound 4, 1-(4-(4-(5-(2-chloro-6-(trifluoromethyl)phenyl)-4,5-dihydroisoxazol-3-yl)thiazol-2-yl)piperidin-1-yl)-2-((3-(trifluoromethyl)pyrazin-2-yl)oxy)ethan-1-one], the pest or weed control at 50 ppm in the test on Phytophthora infestans [1] is at least 70%. In addition, the inhibition of growth at 30 ppm in the test with Phytophthora infestans [2] was at least 70%.

In the case of `O=C(COc1ccc(C(F)(F)F)nn1)N1CCC(c2nc(C3=NOC(c4c(F)cccc4Cl)C3)cs2)CC1` (stereo not drawn) [Compound 39, 1-(4-(4-(5-(2-chloro-6-fluorophenyl)-4,5-dihydroisoxazol-3-yl)thiazol-2-yl)piperidin-1-yl)-2-((6-(trifluoromethyl)pyridazin-3-yl)oxy)ethan-1-one], in the test with Phytophthora infestans [1], the pest or weed control at 50 ppm is at least 70%. For the same compound, the inhibition of growth at 30 ppm in the test with Phytophthora infestans [2] is at least 70%.

On to `COc1ccnc(OCC(=O)N2CCC(c3nc(C4=NOC(c5c(Cl)cc(Cl)cc5Cl)C4)cs3)CC2)n1` (stereo not drawn) [Compound 35, 2-((4-methoxypyrimidin-2-yl)oxy)-1-(4-(4-(5-(2,4,6-trichlorophenyl)-4,5-dihydroisoxazol-3-yl)thiazol-2-yl)piperidin-1-yl)ethan-1-one], for which the pest or weed control at 50 ppm with Phytophthora infestans [1] is at least 70%.

On to `COc1nc(OC)nc(OCC(=O)N2CCC(c3nc(C4=NOC(c5c(F)cccc5F)C4)cs3)CC2)n1` (stereo not drawn) [Compound 109, 1-(4-(4-(5-(2,6-difluorophenyl)-4,5-dihydroisoxazol-3-yl)thiazol-2-yl)piperidin-1-yl)-2-((4,6-dimethoxy-1,3,5-triazin-2-yl)oxy)ethan-1-one], for which the inhibition of growth at 30 ppm with Phytophthora infestans [2] is at least 70%.

For the compound `COc1cncc(OCC(=O)N2CCC(c3nc(C4=NOC(c5c(F)cccc5Cl)C4)cs3)CC2)n1` (stereo not drawn) [Compound 101, 1-(4-(4-(5-(2-chloro-6-fluorophenyl)-4,5-dihydroisoxazol-3-yl)thiazol-2-yl)piperidin-1-yl)-2-((6-methoxypyrazin-2-yl)oxy)ethan-1-one], the inhibition of growth at 30 ppm with Phytophthora infestans [2] is at least 70%.

Regarding `O=C(COc1nccc(C(F)(F)F)n1)N1CCC(c2nc(C3=NOC(c4c(F)cccc4Br)C3)cs2)CC1` (stereo not drawn) [Compound 52, 1-(4-(4-(5-(2-bromo-6-fluorophenyl)-4,5-dihydroisoxazol-3-yl)thiazol-2-yl)piperidin-1-yl)-2-((4-(trifluoromethyl)pyrimidin-2-yl)oxy)ethan-1-one], the inhibition of growth at 30 ppm with Phytophthora infestans [2] was at least 70%.

Regarding `COc1cncnc1OCC(=O)N1CCC(c2nc(C3=NOC(c4cc(Cl)ccc4Cl)C3)cs2)CC1` (stereo not drawn) [Compound 77, 1-(4-(4-(5-(2,5-dichlorophenyl)-4,5-dihydroisoxazol-3-yl)thiazol-2-yl)piperidin-1-yl)-2-((5-methoxypyrimidin-4-yl)oxy)ethan-1-one], the inhibition of growth at 30 ppm in the test with Phytophthora infestans [2] was at least 70%.

`COc1ncc(OCC(=O)N2CCC(c3nc(C4=NOC(c5c(F)cccc5F)C4)cs3)CC2)cn1` (stereo not drawn) [Compound 139, 1-(4-(4-(5-(2,6-difluorophenyl)-4,5-dihydroisoxazol-3-yl)thiazol-2-yl)piperidin-1-yl)-2-((2-methoxypyrimidin-5-yl)oxy)ethan-1-one]: the inhibition of growth at 30 ppm in the test on Phytophthora infestans [2] was at least 70%.

`COc1ncc(OCC(=O)N2CCC(c3nc(C4=NOC(c5c(F)cccc5Br)C4)cs3)CC2)cn1` (stereo not drawn) [Compound 134, 1-(4-(4-(5-(2-bromo-6-fluorophenyl)-4,5-dihydroisoxazol-3-yl)thiazol-2-yl)piperidin-1-yl)-2-((2-methoxypyrimidin-5-yl)oxy)ethan-1-one]: the inhibition of growth at 30 ppm with Phytophthora infestans [2] is at least 70%.

With `COc1cncc(OCC(=O)N2CCC(c3nc(C4=NOC(c5c(Cl)cccc5C(F)(F)F)C4)cs3)CC2)n1` (stereo not drawn) [Compound 102, 1-(4-(4-(5-(2-chloro-6-(trifluoromethyl)phenyl)-4,5-dihydroisoxazol-3-yl)thiazol-2-yl)piperidin-1-yl)-2-((6-methoxypyrazin-2-yl)oxy)ethan-1-one], the inhibition of growth at 30 ppm with Phytophthora infestans [2] was at least 70%.

`COc1nc(OC)nc(OCC(=O)N2CCC(c3nc(C4=NOC(c5c(Cl)cccc5Cl)C4)cs3)CC2)n1` (stereo not drawn) [Compound 106, 1-(4-(4-(5-(2,6-dichlorophenyl)-4,5-dihydroisoxazol-3-yl)thiazol-2-yl)piperidin-1-yl)-2-((4,6-dimethoxy-1,3,5-triazin-2-yl)oxy)ethan-1-one]: the inhibition of growth at 30 ppm in the test with Phytophthora infestans [2] is at least 70%.

For the compound `N#Cc1ccnc(OCC(=O)N2CCC(c3nc(C4=NOC(c5c(F)cccc5Br)C4)cs3)CC2)n1` (stereo not drawn) [Compound 117, 2-(2-(4-(4-(5-(2-bromo-6-fluorophenyl)-4,5-dihydroisoxazol-3-yl)thiazol-2-yl)piperidin-1-yl)-2-oxoethoxy)pyrimidine-4-carbonitrile], the inhibition of growth at 30 ppm in the test with Phytophthora infestans [2] was at least 70%.

Consider `O=C(COc1nccc(C(F)(F)F)n1)N1CCC(c2nc(C3=NOC(c4c(F)cccc4Cl)C3)cs2)CC1` (stereo not drawn) [Compound 48, 1-(4-(4-(5-(2-chloro-6-fluorophenyl)-4,5-dihydroisoxazol-3-yl)thiazol-2-yl)piperidin-1-yl)-2-((4-(trifluoromethyl)pyrimidin-2-yl)oxy)ethan-1-one], for which the inhibition of growth at 30 ppm in the test on Phytophthora infestans [2] was at least 70%.

In the case of `COc1nccnc1OCC(=O)N1CCC(c2csc(C3=NOC(c4c(F)cccc4Cl)C3)n2)CC1` (stereo not drawn) [Compound 97, 1-(4-(2-(5-(2-chloro-6-fluorophenyl)-4,5-dihydroisoxazol-3-yl)thiazol-4-yl)piperidin-1-yl)-2-((3-methoxypyrazin-2-yl)oxy)ethan-1-one], the inhibition of growth at 30 ppm with Phytophthora infestans [2] was at least 70%.

In the case of `O=C(COc1cncc(C(F)(F)F)n1)N1CCC(c2nc(C3=NOC(c4c(Cl)ccc(F)c4F)C3)cs2)CC1` (stereo not drawn) [Compound 61, 1-(4-(4-(5-(6-chloro-2,3-difluorophenyl)-4,5-dihydroisoxazol-3-yl)thiazol-2-yl)piperidin-1-yl)-2-((6-(trifluoromethyl)pyrazin-2-yl)oxy)ethan-1-one], in the test on Phytophthora infestans [2], the inhibition of growth at 30 ppm was at least 70%.

Turning to `COc1cncnc1OCC(=O)N1CCC(c2nc(C3=NOC(c4c(Cl)cccc4OS(C)(=O)=O)C3)cs2)CC1` (stereo not drawn) [Compound 72, 3-chloro-2-(3-(2-(1-(2-((5-methoxypyrimidin-4-yl)oxy)acetyl)piperidin-4-yl)thiazol-4-yl)-4,5-dihydroisoxazol-5-yl)phenyl methanesulfonate], the inhibition of growth at 30 ppm with Phytophthora infestans [2] is at least 70%.

Take `COc1cncnc1OCC(=O)N1CCC(c2nc(C3=NOC(c4c(Cl)cc(Cl)cc4Cl)C3)cs2)CC1` (stereo not drawn) [Compound 75, 2-((5-methoxypyrimidin-4-yl)oxy)-1-(4-(4-(5-(2,4,6-trichlorophenyl)-4,5-dihydroisoxazol-3-yl)thiazol-2-yl)piperidin-1-yl)ethan-1-one]: the inhibition of growth at 30 ppm in the test on Phytophthora infestans [2] was at least 70%.

Take `O=C(COc1cncc(C(F)(F)F)n1)N1CCC(c2nc(C3=NOC(c4c(F)cccc4F)C3)cs2)CC1` (stereo not drawn) [Compound 58, 1-(4-(4-(5-(2,6-difluorophenyl)-4,5-dihydroisoxazol-3-yl)thiazol-2-yl)piperidin-1-yl)-2-((6-(trifluoromethyl)pyrazin-2-yl)oxy)ethan-1-one]: the inhibition of growth at 30 ppm in the test on Phytophthora infestans [2] was at least 70%.

On to `COc1cncnc1OCC(=O)N1CCC(c2nc(C3=NOC(c4c(Cl)cccc4C#N)C3)cs2)CC1` (stereo not drawn) [Compound 71, 3-chloro-2-(3-(2-(1-(2-((5-methoxypyrimidin-4-yl)oxy)acetyl)piperidin-4-yl)thiazol-4-yl)-4,5-dihydroisoxazol-5-yl)benzonitrile], for which, in the test on Phytophthora infestans [2], the inhibition of growth at 30 ppm is at least 70%.
